What was measured:
[1] = system: SARS-CoV-2; assay: microbe, parasite or virus in culture; type: functional, organism-based, Chlorocebus sabaeus, Vero C1008; conditions: Severe acute respiratory syndrome coronavirus 2, Vero C1008, 48 h
[2] = in vitro; conditions: chlorocebus sabaeus, Vero E6 (Vero C1008) cells
[3] = system: SARS-CoV-2; assay: microbe, parasite or virus in culture; conditions: Severe acute respiratory syndrome coronavirus 2, Vero C1008, 48 h

| SMILES | IC50 ([1]; read-out: IC50) | IC50 ([1]; read-out: pIC50 (converted)) | CC50 at 48 h ([2]; CC50) | CC50 at 48 h ([2]; pCC50) | IC50 [3] | IC50 ([3]; read-out: pIC50 (converted)) |
| --- | --- | --- | --- | --- | --- | --- |
| CCN(CC)Cc1ccc2cc(COC(=O)Nc3ccc(C(=O)NO)cc3)ccc2c1 [GIVINOSTAT] | > 100 µM | > 100 µM | 0.767 µM | 0.759 µM | 10.5 µM | 10.5 µM |
| C#C[C@]1(O)CC[C@H]2[C@@H]3CCC4=CCCC[C@@H]4[C@H]3CC[C@@]21C [LYNESTRENOL] | > 50.1 µM | > 50.1 µM | 10.5 µM | 10.5 µM | > 50.1 µM | > 50.1 µM |
| CCOC1O[C@H]([C@@H](COCc2ccccc2)OCc2ccccc2)[C@H](OCc2ccccc2)[C@H]1O (some centres undefined) [TRIBENOSIDE] | > 50.1 µM | > 50.1 µM | 17.4 µM | 17.4 µM | > 50.1 µM | > 50.1 µM |
| CCCCOc1cc(C(=O)NCCN(CC)CC)c2ccccc2n1 [DIBUCAINE] | ~29.5 µM | ~29.5 µM | ~39.6 µM | ~39.8 µM | 29.1 µM | 28.8 µM |
| CCN(CC)CCOC1(c2ccccc2)CCN(CCNc2ccccc2)CC1 [DIAMOCAINE] | 22.4 µM | 22.4 µM | 46.8 µM | 46.8 µM | ~9.55 µM | ~9.55 µM |
| COc1ccc2c(c1)c(CC(=O)O)c(C)n2C(=O)c1ccc(Cl)cc1 [INDOMETHACIN] | > 100 µM | > 100 µM | > 100 µM | > 100 µM | > 100 µM | > 100 µM |
| CN(C)CC/C=C1\c2ccccc2OCc2c1oc1ccccc21 | > 100 µM | > 100 µM | 12.2 µM | 12 µM | 18.2 µM | 18.2 µM |
| CC(C)[C@H](N/C(=N\S(=O)(=O)c1ccc(Cl)cc1)N1C[C@@H](c2ccccc2)C(c2ccc(Cl)cc2)=N1)C(N)=O | > 50.1 µM | > 50.1 µM | 16 µM | 15.8 µM | > 100 µM | > 100 µM |
| CC(=O)O[C@H]1CC[C@@]2(C)C(=CC[C@@H]3[C@@H]2CC[C@]2(C)C(c4cccnc4)=CC[C@@H]32)C1 [ABIRATERONE ACETATE] | > 25.1 µM | > 25.1 µM | 9.89 µM | 9.77 µM | > 100 µM | > 100 µM |
| Cc1c(O)cccc1C(=O)N[C@@H](CSc1ccccc1)[C@H](O)CN1C[C@H]2CCCC[C@H]2C[C@H]1C(=O)NC(C)(C)C | ~3.97 µM | ~3.98 µM | 11.2 µM | 11.2 µM | 5.22 µM | 5.25 µM |
| CC(=O)c1ccc2c(c1)N(CCCN1CCN(CCO)CC1)c1ccccc1S2 [ACETOPHENAZINE] | > 100 µM | > 100 µM | ~14.6 µM | ~14.5 µM | > 100 µM | > 100 µM |
| CCC(C)n1ncn(-c2ccc(N3CCN(c4ccc(OC[C@H]5CO[C@](Cn6cncn6)(c6ccc(F)cc6F)O5)cc4)CC3)cc2)c1=O (some centres undefined) [SAPERCONAZOLE] | > 100 µM | > 100 µM | > 100 µM | > 100 µM | > 100 µM | > 100 µM |
| CCCSc1ccccc1N1CCN(CCCCn2c(=O)[nH]c3ccccc3c2=O)CC1 [TIOPERIDONE] | > 100 µM | > 100 µM | 7.24 µM | 7.24 µM | 9.12 µM | 9.12 µM |
| CN(C(=O)CN(CCO)CC(=O)N(C)C(C)(C)Cc1ccccc1)C(C)(C)Cc1ccccc1 [OXETHAZAINE] | > 100 µM | > 100 µM | 26.3 µM | 26.3 µM | 18.6 µM | 18.6 µM |
| CC[C@H](C(=O)[C@H](C)[C@@H](O)[C@H](C)CCc1ccc(C)c(O)c1C(=O)O)[C@@H]1O[C@@](CC)([C@H]2CC[C@](O)(CC)[C@@H](C)O2)C[C@@H]1C | 1.07 µM | 1.07 µM | ~5.37 µM | ~5.37 µM | > 0.631 µM | > 0.631 µM |
| COc1cc(C(=O)OCCCN2CCCN(CCCOC(=O)c3cc(OC)c(OC)c(OC)c3)CC2)cc(OC)c1OC [DILAZEP] | > 100 µM | > 100 µM | ~28.2 µM | ~28.2 µM | > 100 µM | > 100 µM |
| CN(C)CC/C=C1\c2ccccc2CSc2ccccc21 [DOTHIEPIN] | > 25.1 µM | > 25.1 µM | 20 µM | 20 µM | 16.6 µM | 16.6 µM |
| O=C(NC1CN2CCC1CC2)c1cc(Cl)cc2c1OC1CCCCC21 (centres undefined) | > 25.1 µM | > 25.1 µM | 21.6 µM | 21.4 µM | 7.94 µM | 7.94 µM |
| COC(=O)N[C@H](C(=O)N1CCC[C@H]1c1nc(-c2ccc3cc(-c4ccc5[nH]c([C@@H]6CCCN6C(=O)[C@@H](NC(=O)OC)C(C)C)nc5c4)ccc3c2)c[nH]1)C(C)C | > 100 µM | > 100 µM | 12.7 µM | 12.6 µM | > 100 µM | > 100 µM |
